In patent EP0517126A1, “Use of diacetyl-splenopentin in chemotherapy and radiation therapy” (WOGEPHARM GmbH, priority 1991, dated 1992):
No end group written: not given here.

How the values were obtained:
Format in all cases: in vivo, BALB/c-Mäuse
[1] = test system: Knochenmarkstammzellen; experiment: Agar colony test (CFU test) of bone marrow stem cells after methotrexate treatment, followed by DA-SP5; conditions: after Methotrexat 175 mg/kg days +1 to +5, DA-SP5 10 µg i.p. three times weekly, normal value 121 ± 23
Text: (§1) Es wurde gefunden, daß als Folge einer Therapie mit Zytostatika bzw. durch eine Bestrahlungstherapie sich im Blut der entsprechend behandelten Patienten die Zahl immunologischer Abwehrzellen vermindert. Dies resultiert, weil durch die o. g. Therapie auch die Stammzellen des Knochenmarks (aus diesen entstehen die immunologischen Abwehrzellen) zytotoxisch geschädigt werden. Die Substanz DA-SP5 erhöht die Nachbildung von immunologischen Abwehrzellen aus Stammzellen des Knochenmarks (W. DIEZEL et al. (1989): DD-PS 268160 Al). Es hat sich gezeigt, daß DA-SP5 direkt die Proliferation unreifer Stammzellen des Knochenmarks beschleunigen kann bzw. die Wirkung des Kolonien-stimulierrenden Faktors GM-CSF synergistisch erhöht. Überraschenderweise wurde jetzt festgestellt, daß als Folge dieser Wirkung die zytotoxische Schädigung von Knochenmarkstammzellen (und damit die verminderte Entstehung immunologischer Abwehrzellen) durch Chemotherapeutika bzw. infolge Bestrahlung der Zellen, kompensiert werden kann. Die erfindungsgemäße Wirkung wurde dadurch festgestellt, indem BALB/c-Mäuse hochdosiert mit zytotoxischen (Zellproliferations-hemmenden) Therapeutika systemisch behandelt wurden. Anschließend erfolgte eine Therapie mit DA-SP5 bzw. es wurde lediglich 0,9%ige NaCl-Lösung (Kontrallgruppe) appliziert. Während dieser Therapie wurde untersucht, ob die DE-SP5-behandelten Tiere zeitlich eher befähigt wurden "Knochenmarkstammzell-Kolonien" entsprechend der Norm zu bilden. Eine diesbezüglich schnellere Bildung korreliert mit einer schnelleren Entstehung entsprechender immunologischer Abwehrzellen im Blut. In einer weiteren Versuchsserie wurden BALB/c-Mäuse subletal bestrahlt, und anschließend ebenfalls mit oder ohne DA-SP5 behandelt. Auch bei diesen Tieren wurde untersucht, ob sie zeitlich eher befähigt waren, "Knochenmarkzell-Kolonien" entsprechend der Norm zu bilden. Das erfindungsgemäß verwendete Mittel wurde in Mengen von 0,05mg bis 1,0 mg pro kg Körpergewicht verabreicht. […]

[2] = test system: Knochenmarkstammzellen; experiment: Agar colony test (CFU test) of bone marrow stem cells after dexamethasone treatment, followed by DA-SP5; conditions: after Dexamethason 150 mg/kg i.p. days +1 to +5, DA-SP5 10 µg i.p. three times weekly, normal value 121 ± 23
Text: as §1

[3] = test system: Knochenmarkstammzellen; experiment: Agar colony test (CFU test) of bone marrow stem cells after sublethal X-ray irradiation, followed by DA-SP5; conditions: after single X-ray irradiation, DA-SP5 10 µg i.p. three times weekly, normal value 121 ± 23
Text: as §1

“Ac-RK(Ac)EVY [DA-SP5, (N^α-acetyl-L-arginyl)-(N^ε-acetyl-L-lysyl)-L-glutamyl-L-valyl-L-tyrosin]” was tested, and the “Kolonien pro Femur (x̄ ± s)” value ([1]; Tag Nr. 10 of DA-SP5 therapy) was 9 ± 6, the “Kolonien pro Femur (x̄ ± s)” value ([1]; Tag Nr. 20 of DA-SP5 therapy) was 53 ± 24 and the “Kolonien pro Femur (x̄ ± s)” value ([1]; Tag Nr. 40 of DA-SP5 therapy) was 110 ± 20. The “Kolonien pro Femur (x̄ ± s)” value ([2]; Tag Nr. 10 of DA-SP5 therapy) was 10 ± 8, the “Kolonien pro Femur (x̄ ± s)” value ([2]; Tag Nr. 20 of DA-SP5 therapy) was 55 ± 21 and the “Kolonien pro Femur (x̄ ± s)” value ([2]; Tag Nr. 40 of DA-SP5 therapy) was 126 ± 18. The “Kolonien pro Femur (x̄ ± s)” value ([3]; Tag Nr.10 of DA-SP5 therapy) was 8 ± 6, the “Kolonien pro Femur (x̄ ± s)” value ([3]; Tag Nr.20 of DA-SP5 therapy) was 116 ± 10 and the “Kolonien pro Femur (x̄ ± s)” value ([3]; Tag Nr.40 of DA-SP5 therapy) was 126 ± 12.
